Measured values taken from patent publication EP0051084A1, “Substituted 1H-1,2,4-triazoles” (AMERICAN CYANAMID COMPANY, priority 1980, dated 1982).

System: Adjuvant induced experimental polyarthritis
Experiment: Adjuvant Arthritis Assay
Format: in vivo, Royal Hart Wistar strain rats
Set-up: key: Active: If the mean RSA of all three tests is less than 0.753, the compound is considered active
Conditions: rats, 50 mg./kg. orally once daily on days 0 through 13 post-challenge; injected paw measured on 14th day; RSA = treated/control
Text: Adjuvant induced experimental polyarthritis is a specific systemic disease of the rat which shares interesting similarities with rheumatoid arthritis. Specifically, the histology of the two diseases bears a remarkable resemblence as shown by C. M. Pearson, et al, Am. J. Path., 42, 73 (1963). E. M. Glenn, Am. J. Vet. Res., 27, (116), 339 (1966) has classified adjuvant induced polyarthritis as a crippling and permanent deformity resulting from diffuse connective tissue involvement around certain susceptible joints in the rat. Zahiri, et al., Can. Med. Ass. J., 101, 269 (1969) have shown that the fusiform swelling of the distal joints is associated with edema, congestion and synovitis including pannus formation, all of which precede the ultimate destruction of bone and cartilage. Furthermore, Zahiri, et al., indicate that the cartilage destruction in the joint is due to an invasive pannus which originates in the marginal synovium and extends across the articular surface to erode it. […] The most pointed reference showing the relationship between arthritis and joint deterioration is "An X-Ray Analysis of Adjuvant Arthritis in the Rat; the Effect of Prednisolone and Indomethacin", Blackham, et al., Agents and Action, 7 (No. 1), 145-151 (1977). In a similar manner, inhibition of the progress of arhtritis in paws of rats treated with the compounds of this invention also lessens associated joint deterioration.
Groups of three Royal Hart Wistar strain rats, weighing 200 + 10 g. each were injected intradermally in the right hind paw with Freund's adjuvant (dried human tubercle bacilli in a mineral oil vehicle) at a dose of 2 mg./kg. of body weight. Test compounds were administered orally in a 1.5% starch vehicle at 50 mg./kg. of body weight once daily on days 0 through 13 post-challenge. Control rats were treated in a similar manner, buty given only starch vehicle. On the l4th day post-challenge the diameter of the injected paw (primary lesion) was measured by micrometer caliper. From these measurements of inflamed paws a determination was made of the relative surface area (RSA). This is a ratio of the mean surface area of the paws of 3 treated rats/mean surface area of the paws of 60 control rats. If the RSA is equal to or less than 0.76, the compound is retested. After the second test, the mean RSA for the rat paws from both tests is calculated and if it is equal to or less than 0.736 the compound is tested a third time. If the mean RSA of all three tests is less than 0.753, the compound is considered active.

SMILES | Result (relative surface area (RSA) of injected paw)
N#CCC(=O)Nc1ccc(-c2ncnn2-c2ccc(F)cc2)cc1 | Active
Nc1ccc(-n2ncnc2-c2ccc(F)cc2)cc1 [1-(p-AminopUhenyl)-5-(p-fluorophenyl)-1H-1,2,4-triazole] | Active
O=[N+]([O-])c1ccc(-c2ncnn2-c2ccc(Br)cc2)cc1 [1-(p-Bromophenyl)-5-(p-nitrophenyl)-1H-1,2,4-triazole] | Active
O=[N+]([O-])c1ccc(-c2ncnn2-c2ccc(F)cc2)cc1 [1-(p-Fluorophenyl)-5-(p-nitrophenyl)-1H-1,2,4-triazole] | Active
CN(C)C=Nc1ccc(-c2ncnn2-c2ccc(F)cc2)cc1 [1-(p-Fluorophenyl)-5-[p-[(dimethylaminomethylene)-amino]phenyl]-1H-1,2,4-triazole] | Active
Nc1ccc(-c2ncnn2-c2ccc(Cl)cc2)cc1 [5-(p-Aminophenyl)-1-(p-chlorophenyl)-1H-1,2,4-triazole] | Active
Nc1ccc(-c2ncnn2-c2ccc(F)cc2)cc1 [5-(p-Aminophenyl)-1-(p-fluorophenyl)-1H-1,2,4-triazole] | Active
Nc1ccc(-c2ncnn2-c2ccccc2F)cc1 [5-(p-Aminophenyl)-l-(o-fluorophenyl)-lH-l,2,4-triazole] | Active
Nc1ccc(-c2ncnn2-c2ccc(Br)cc2)cc1 [5-(p-Aminophenyl)-l-(p-bromophenyl)-lH-l,2,4-triazole] | Active
O=[N+]([O-])c1ccc(-n2ncnc2-c2ccc(F)cc2)cc1 [5-(p-Fluorophenyl)-1-(p-nitrophenyl)-1H-1,2,4-triazole] | Active
O=[N+]([O-])c1ccc(-c2ncnn2-c2ccccc2)cc1 [l-Phenyl-5-(p-nitrophenyl)-lH-l,2,4-triazole] | Active

System: carrageenin inflamed feet
Experiment: Carrageenin Edema Assay
Format: in vivo, Royal Hart, Wistar strain rats
Set-up: key: Active: If the mean ratio of test 1 and 2 is equal to or greater than 1.43, the compound is considered active
Conditions: rats, 250 mg./kg. by gavage; measured 5 hours after drug administration (4 hours after carrageenin challenge)
Protocol: Royal Hart, Wistar strain rats ranging in weight from 80 to 90 grams were used. The rats were fasted overnight prior to dosing but had free access to water. The test compounds were administered in aqueous suspension, by gavage, in a volume of 1.7 ml. per 50 grams of rat [corresponds to hydration volume used by Winter, et al., Proc. Soc. Exp. Biol. & Med., Ill, 544-547 (1962)]. The dose of all compounds was 250 mg./kq. The phlogistic agent used was carrageenin prepared as a sterile 1% suspension in 0.9% aqueous sodium chloride for routine testing. A volume of 0.05 ml. was injected into the plantar tissue of the right hind paw. Measurements were made 5 hours after drug administration (4 hours after carrageenin challenge). The paw of the unanesthetized rat was immersed in mercury exactly to an ink mark on the skin over the lateral malleolus. The mercury was contained in a glass cylinder 25 x 60 mm. The mercury column was connected with a Statham pressure transducer (model P23BB), range 0-5 cm. mercury. The output from the transducer was led through a model 260BLH signal conditioning unit and visualized by digital indicator. Volumes of both the normal and carrageenin inflamed feet were determined. The difference between the two measurements was considered to be the increased edema due to the carrageenin administration. Results were expressed as a control (C)/treated (T) efficacy ratio. (The ratio of mean edema volume of 8 control rats over the mean edema volume of 2 treated rats.) If the C/T ratio is equal to or greater than 1.41, the test is repeated. If the mean ratio of test 1 and 2 is equal to or greater than 1.43, the compound is considered active. The results of this test with typical compounds of this invention are recorded in Table

SMILES | Result (control (C)/treated (T) efficacy ratio of edema volume)
c1ccc(-c2ncnn2-c2ccccc2)cc1 [1,5-Diphenyl-1H-1,2,4-triazole, 1,5-Diphenyl-lH-1,2,4-triazole] | Active
COc1cc(-c2nc(C)nn2-c2ccc(Br)cc2)cc(OC)c1OC [1-(p-Bromophenyl)-3-methyl-5-(3,4,5- -trimethoxyphenyl)-lH-1,2,4-triazole] | Active
Clc1ccc(-n2ncnc2-c2cnccn2)cc1 [2-fl-(p-Chlorophenyl)-lH-1,2,4-triazol-5-yllpyrazine] | Active
c1cncc(-c2nnc[nH]2)c1 [3-(4H-1,2,4-Triazol-3-yl)-pyridine] | Active
c1ccc(-n2ncnc2-c2ccncc2)cc1 [4-(1-Phenyl-1H-1,2,4-triazol-5-yl)pyridine] | Active
Fc1ccc(-n2ncnc2-c2ccncc2)cc1 [4-[1-(p-Fluorophenyl)-1H-1,2,4-triazol-5-yl]pyridine] | Active
O=[N+]([O-])c1ccc(-n2ncnc2-c2cnccn2)cc1 [(1-(p-Nitrophenyl)-1H-1,2,4-triazol-5-yl]pyrazine] | Active
O=S(=O)(c1ccc(-n2ncnc2-c2cnccn2)cc1)C(F)F [{1-[p-(Difluoromethylsulfonyl)phenyl]-1H-1,2,4--triazol-5-yl}pyrazine] | Active

System: migration of macrophages
Experiment: Migratory Inhibition Test (capillary tube migration assay for MIF inhibitors)
Format: cell-based, Male Hartley guinea pigs
Set-up: key: Active: Greater than 15% reversal of inhibition, c-b/a-b
Conditions: Dose 10 mcg./ml.; guinea pig peritoneal cells, 37°C. for 24 hours
Text: Migratory Inhibition Test
Rheumatoid arthritis is a chronic inflammatory disease that is characterized by the migration of lymphocytes, macrophages and polymorphonuclear leukocytes to the sites of inflammation. The migration of lymphocytes and macrophages and their multiplication in situ is one reason for the very large increase in size of the normally thin synovial membrane which encloses the joint space. This transformed synovial membrane slowly grows over the articular surfaces and causes the destruction of the articular cartilage and other connective tissue structures of the joint. One of the mechanisms for the destruction of articular cartilage by the synovium is through the release of various hydrolytic enzymes by the resident macrophages which have been immobilized and activated by migration inhibitory factor (MIF). Macrophages stimulated by MIF are termed "activated macrophages" and undergo the following changes: (a) increased glucose oxidation, (b) increased ruffling of plasma membrane and increased spreading of cells, (c) synthesis and secretion of neutral proteases, (d) release of preformed lysosomal enzymes, (e) decreased migration from a capillary tube. […] The mechanism of cartilage destruction can be pictured as follows: [formula]
Drugs that can therefore block the release of MIF by lymphocytes or the activation of macrophages by MIF may be clinically effective in retarding the destructive joint damage which occurs in rheumatoid arthritis. Drugs can be tested as MIF inhibitors by using the capillary tube migration assay as follows: Male Hartley guinea pigs, weighing between 300 and 600 grams, were injected intraperitoneally with 25 ml. of Marcal 52 Oil@ (Humble Oil Co.). Three to four days later the guinea pigs were decapitated, the peritoneum opened and 50 ml. of cold Hank's solution added to the peritoneum. The Hank's solution containing the cell suspension was then aspirated into a separatory funnel. This procedure was repeated twice. […] Viability of the cells was then determined using trypan blue. […]

SMILES | Result (reversal of antigen inhibition of macrophage migration)
O=[N+]([O-])c1ccc(-c2ncnn2-c2ccc(Br)cc2)cc1 [1-(p-Bromophenyl)-5-(p-nitrophenyl)-1H-1,2,4-triazole] | Active
c1ccc(-n2ncnc2-c2ccncc2)cc1 [4-(1-Phenyl-1H-1,2,4-triazol-5-yl)pyridine] | Active
Nc1ccc(-c2ncnn2-c2ccc(Br)cc2)cc1 [5-(p-Aminophenyl)-l-(p-bromophenyl)-lH-l,2,4-triazole] | Active
